# Experimental data from patent US4578400A, “Therapeutic composition and method for treatment of cardiovascular diseases” (priority 1982, dated 1986).
# Experiments:
# Acute toxicity = conditions: one week observation
# Source text: Male ddy mice weighing about 25 g were divided into groups of 10 animals and orally administered once with 3 g/kg of 5--HDA, 5--HDA--Na, 5--HDAE, 5--HDA--DHP or δ-DL, or intraperitoneally injected once with 1 g/kg of said compounds.
# [1] = test system: ventricular fibrillation after coronary artery ligation; assay: Antiarrhythmic effects on myocardial infarction (coronary ligation); assay type: in vivo, dogs; conditions: for Threshold level for inducing ventricular fibrillation, 30 min after ligation: before ligation = 100, control 41
# Source text: Antiarrhythmic effects on myocardial infarction
# The method described by Shinohara (Jap. Circul. J., 32, 1269-1281, 1968) was used. Dogs were divided into groups of 5 animals, anesthetized with intravenous pentobarbital and were thoracotomized under artificial respiration, and a platinum bipolar electrode was inserted on the wall of the right atrium. Then the sinus node was crushed and the animals were subjected to pacing (2.5 Hz, 3 msec, 3.5-8 V) with an electronic stimulator. The left anterior descending coronary artery was doubly ligated at a site 2 cm away from its origin (A. S. Harris, Circulation, 1, 1318, 1950). Then 5--HDA--Na and lidocaine were injected into the femoral vein of the respective dogs. Using an electrode inserted in an ischemic zone in the left ventricle, the animals were given 15 to 20 successive electrical shocks before the ligation and 30 minutes after the ligation and administration. The threshold level necessary for inducing ventricular fibrillation was determined for each group of animals and shown in Table 4, with the values before the ligation taken as 100.
# [2] = Solubility (physicochemical properties, Table 1)
# myocardial mitochondria = assay: Inhibition of the decrease in respiratory capacity of myocardial mitochondria; assay type: biochemical, male Wistar rats; conditions: for ATP production rate: normal 515, defective 204, *P < 0.05
# Method: Inhibition of the decrease in respiratory capacity of myocardial mitochondria
# According to the method of Hagiwara (Biochem. Biophys. Acta, 46, 134-142, 1961), mitochondria fractions were prepared from the myocardium isolated from male Wistar rats weighing about 300 g. The respiratory capacity of the mitochondria was measured by polarography with an oxygen electrode (TA-100, Yanagimoto), with sodium glutamate and ADP being successively added to give final concentrations of 50 mM and 4 mM, respectively. Defective mitochondria were prepared by leaviang the mitochondria fractions at 0° C. for 24 hours, and 5--HDA--Na was added to determine its ability to inhibit the decrease in the respiratory capacity of the myocardial mitochondria, which is proportional to the rate of ATP production.
# [3] = test system: ouabain induced arrhythmia; assay: Effect on ouabain induced arrhythmia; assay type: in vivo, male hartley guinea pigs; conditions: for relative time for extrasystole to occur / relative time for cardiac arrest to occur / relative time for ventricular fibrillation to occur: control = 100
# Source text: Effect on ouabain induced arrhythmia
# The procedure described in Matsubara et al. (Folia Pharmacologica Japonica, 72, 557-571, 1976) was followed.
# Male hartley guinea pigs were divided into groups of 8 animals and anesthetized with intraperitoneal urethane. Three groups were orally administered 5--HDA--Na, 5--HDAE and 5--HDA--DHP dissolved in distilled water. Another group was intravenously injected with 5--HDA--Na dissolved in physiological saline. One group was orally administered δ-DL emulsified in 5% aqueous arabic gum solution. One group was injected intravenously with lidocaine dissolved in physiological saline. For the respective routes of administration, control groups were administered the solvents used in administration of the test compounds. Thirty minutes after the oral administration and one minute after the intravenous injection, ouabain was infused into the jugular vein at a rate of 5 μg/kg/min until extrasystole, ventricular fibrillation and cardiac arrest appeared on a standard limb lead II of ECG. The results are shown in Table 3, with the time necessary for the respective symptoms to occur in the control groups taken as 100.
# [4] = Lowering serum cholesterol levels in hyperlipidemic rabbits; assay type: in vivo, male Japanese white rabbits; conditions: 100 mg/kg oral daily for 7 days
# Source text: Male Japanese white rabbits weighing about 2.5 kg were fed on a solid diet containing 1% cholesterol (RC-4, Nippon Crea Co., Ltd.) for 10 weeks until hypercholesterolemia fully developed. The rabbits were then divided into groups of 5 animals, and 5--HDA--Na or δ-DL was orally admininistered daily for 7 days, either as a solution or as an emulsion in 5% aqueous arabic gum. Three hours after the last administration, blood was drawn to determine the serum level of cholesterol.
# [5] = Lowering serum lipid levels in Triton-induced hyperlipidemic rats; assay type: in vivo, male Wistar rats
# Method: After 10 hours, blood samples were drawn to determine the serum levels of total cholesterol and triglyceride.
# [6] = 100 mg/kg oral, four times, against control, 10 hours after Triton WR-1339, *P < 0.05
structure (smiles),measurement,setting,value
CCCCCC(O)CCCC(=O)[O-].[Na+] (centres unmarked),acute toxicity: abnormality,Acute toxicity; 1 g/kg intraperitoneal once,no abnormality occurred
same,acute toxicity: death,Acute toxicity; 1 g/kg intraperitoneal once,no animal died
same,acute toxicity: abnormality,Acute toxicity; 3 g/kg oral once,no abnormality occurred
same,acute toxicity: death,Acute toxicity; 3 g/kg oral once,no animal died
same,"Threshold level for inducing ventricular fibrillation, 30 min after ligation",[1]; 0.3 mg/kg i.v.,67
same,"Threshold level for inducing ventricular fibrillation, 30 min after ligation","[1]; 1.0 mg/kg i.v., *P < 0.05",70
same,"Threshold level for inducing ventricular fibrillation, 30 min after ligation","[1]; 3.0 mg/kg i.v., *P < 0.05",79
same,threshold level for inducing ventricular fibrillation (in words),"[1]; after coronary ligation, i.v.",increased in a dose-dependent manner
same,solubility in acetone,[2]; acetone,easily soluble
same,solubility in benzene,[2]; benzene,sparingly
same,solubility in chloroform,[2]; chloroform,sparingly
same,solubility in hexane,[2]; hexane,sparingly
same,solubility in methanol,[2]; methanol,easily soluble
same,solubility in water,[2]; water,easily soluble
same,decrease in ATP production in defective mitochondria (in words),myocardial mitochondria; defective mitochondria,significantly inhibited
same,ATP production rate,myocardial mitochondria; defective mitochondria + 10^-4 M,265 mM/mg-protein/min
same,ATP production rate,myocardial mitochondria; defective mitochondria + 10^-5 M,220 mM/mg-protein/min
same,relative time for extrasystole to occur,"[3]; i.v., 20 mg/kg",146
same,relative time for cardiac arrest to occur,"[3]; i.v., 20 mg/kg, *P < 0.05",132
same,relative time for ventricular fibrillation to occur,"[3]; i.v., 20 mg/kg, *P < 0.05",140
same,relative time for extrasystole to occur,"[3]; oral, 50 mg/kg",118
same,relative time for cardiac arrest to occur,"[3]; oral, 50 mg/kg, *P < 0.05",134
same,relative time for ventricular fibrillation to occur,"[3]; oral, 50 mg/kg, *P < 0.05",126
same,relative time for extrasystole to occur,"[3]; oral, 100 mg/kg",160
same,relative time for ventricular fibrillation to occur,"[3]; oral, 100 mg/kg, *P < 0.05",144
same,relative time for cardiac arrest to occur,"[3]; oral, 100 mg/kg, *P < 0.05 where starred",136
same,antiarrhythmic effects (in words),[3]; ouabain induced arrhythmia,significant antiarrhythmic effects
same,serum level of total cholesterol (in words),[4],lowered the serum level of total cholesterol
same,Total serum cholesterol,"[4]; 3 h after last administration, control 1,394, *P < 0.05","1,165 mg/dl"
same,"inhibition rate, total cholesterol (serum)",[5]; [6],20%
same,"inhibition rate, triglyceride (serum)",[5]; [6],15%
same,antilipidemic effects compared with Clofibrate (in words),"[5]; 100 mg/kg, oral","equipotent to or stronger than the effect of the known anti-lipidemic agent, Clofibrate"
